Test results taken from patent publication US12180187B2, “1-phenyl-5-azinylpyrazolyl-3-oxyalkyl acids and their use for controlling unwanted plant growth” (BAYER AKTIENGESELLSCHAFT, priority 2019, dated 2024).

Legend:
[1] = tested on: KCHSC; assay: Pre-emergence action against KCHSC, 1280 g/ha; format: in vivo, Bassia scoparia; details: scored visually after about 3 weeks vs untreated controls (100% = plants have died)
Outline: (§1)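 Each pot was doubly sown in sandy loam and covered, then its soil surface was treated with compound suspension or emulsion containing 0.5% additive at 600 L/ha water. Plants grew in a greenhouse; effect was rated visually as percentages versus controls after about 3 weeks.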

[2] = tested on: LOLRI; assay: Pre-emergence action against LOLRI, 1280 g/ha; format: in vivo, Lolium rigidum; details: visual scoring after about 3 weeks vs untreated controls, 100% = plants have died, 0% = like control plants
Outline: as §1

[3] = tested on: POLCO; assay: Pre-emergence action at 320 g/ha against POLCO; format: in vivo, Fallopia convolvulus (Polygonum convolvulus); details: visual scoring after about 3 weeks vs untreated controls
Outline: (§2)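 Application: aqueous WP or EC with 0.5% additive on soil covering seeds, 600 l/ha. Read-out: visual percent damage after ~3 weeks in greenhouse, untreated pots as reference.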

[4] = tested on: ALOMY; assay: Pre-emergence action against ALOMY, 1280 g/ha; format: in vivo, Alopecurus myosuroides; details: visual scoring after about 3 weeks vs untreated controls, 100% = plants have died, 0% = like control plants
Outline: as §1

[5] = tested on: POAAN; assay: Pre-emergence action against POAAN, 1280 g/ha; format: in vivo, Poa annua; details: visual scoring after about 3 weeks vs untreated controls, 100% = plants have died, 0% = like control plants
Outline: as §1

[6] = tested on: STEME; assay: Pre-emergence action against STEME, 1280 g/ha; format: in vivo, Stellaria media; details: scored visually after about 3 weeks vs untreated controls (100% = plants have died)
Outline: as §1

[7] = tested on: DIGSA; assay: Pre-emergence action against DIGSA, 1280 g/ha; format: in vivo, Digitaria sanguinalis; details: visual scoring after about 3 weeks vs untreated controls, 100% = plants have died, 0% = like control plants
Outline: as §1

[8] = tested on: MATIN; assay: Pre-emergence action at 320 g/ha against MATIN; format: in vivo, Tripleurospermum inodorum (Matricaria inodora); details: visual scoring after about 3 weeks vs untreated controls
Outline: as §2

[9] = tested on: AMARE; assay: Pre-emergence action against AMARE, 1280 g/ha; format: in vivo, Amaranthus retroflexus; details: scored visually after about 3 weeks vs untreated controls (100% = plants have died)
Outline: as §1

[10] = tested on: SETVI; assay: Pre-emergence action against SETVI, 1280 g/ha; format: in vivo, Setaria viridis; details: visual scoring after about 3 weeks vs untreated controls, 100% = plants have died, 0% = like control plants
Outline: as §1

[11] = tested on: LOLRI; assay: Pre-emergence action at 320 g/ha against LOLRI; format: in vivo, Lolium rigidum; details: visual scoring after about 3 weeks vs untreated controls
Outline: as §2

[12] = tested on: AVEFA; assay: Pre-emergence action at 320 g/ha against AVEFA; format: in vivo; details: visual scoring after about 3 weeks vs untreated controls
From the text: b) Seeds of monocotyledonous and dicotyledonous weed plants and crop plants are placed in plastic or organic planting pots and covered with soil. The compounds of the invention, formulated in the form of wettable powders (WP) or as emulsion concentrates (EC), are then applied onto the surface of the covering soil as aqueous suspension or emulsion with addition of 0.5% additive at a water application rate of 600 l/ha (converted). After the treatment, the pots are placed in a greenhouse and kept under good growth conditions for the trial plants. After about 3 weeks, the effect of the preparations is scored visually in comparison with untreated controls as percentages. For example, 100% activity=the plants have died, 0% activity=like control plants. Tables 13 to 26 below show the effects of selected compounds of the general formula (I) on various harmful plants and at an application rate corresponding to 320 g/ha, which were obtained by the experimental procedure mentioned above.

[13] = tested on: MATIN; assay: Post-emergence action against MATIN, 1.28 kg/ha; format: in vivo, Tripleurospermum inodorum (Matricaria inodora); details: dosage 1280 g/ha, visual rating about 3 weeks after treatment vs untreated controls (100% = plants died)
Outline: (§3)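 Greenhouse pot test, sandy loam; weeds sprayed post-emergence at one-leaf stage (2–3 weeks after sowing) with WP or EC formulation plus 0.5% additive, 600 l/ha water. Visual rating after about 3 weeks versus untreated controls, 100% = plants dead, 0% = like control.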

[14] = tested on: SETVI; assay: Pre-emergence action at 320 g/ha against SETVI; format: in vivo, Setaria viridis; details: visual scoring after about 3 weeks vs untreated controls
Outline: as §2

[15] = tested on: VERPE; assay: Post-emergence action against VERPE, 1.28 kg/ha; format: in vivo, Veronica persica; details: dosage 1280 g/ha, visual rating about 3 weeks after treatment vs untreated controls (100% = plants died)
Outline: as §3

[16] = tested on: AMARE; assay: Pre-emergence action at 320 g/ha against AMARE; format: in vivo, Amaranthus retroflexus; details: visual scoring after about 3 weeks vs untreated controls
Outline: as §2

[17] = tested on: VERPE; assay: Pre-emergence action at 320 g/ha against VERPE; format: in vivo, Veronica persica; details: visual scoring after about 3 weeks vs untreated controls
Outline: as §2

[18] = tested on: VERPE; assay: Pre-emergence action against VERPE, 1280 g/ha; format: in vivo, Veronica persica; details: scored visually after about 3 weeks vs untreated controls (100% = plants have died)
Outline: as §1

[19] = tested on: AVEFA; assay: Post-emergence action at 320 g/ha against AVEFA; format: in vivo; details: visual rating about 3 weeks after treatment vs untreated controls
From the text: Accordingly, the compounds of the invention have good herbicidal action against a broad spectrum of weed grasses and broad-leaved weeds and are therefore suitable for controlling unwanted vegetation by the post-emergence method. • b) Seeds of monocotyledonous and dicotyledonous weeds and crop plants are placed in sandy loam in plastic or organic planting pots, covered with soil and cultivated in a greenhouse under controlled growth conditions. 2 to 3 weeks after sowing, the test plants are treated at the one-leaf stage. The compounds of the invention, formulated in the form of wettable powders (WP) or as emulsion concentrates (EC), are then sprayed onto the green parts of the plants as aqueous suspension or emulsion with addition of 0.5% additive at a water application rate of 600 l/ha (converted). After the test plants have been kept in the greenhouse under optimum growth conditions for about 3 weeks, the activity of the preparations is rated visually in comparison to untreated controls. For example, 100% activity=the plants have died, 0% activity=like control plants. Tables 39 to 49 below show the effects of selected compounds of the general formula (I) according to Tables 1 and 2 on various harmful plants and at an application rate corresponding to 320 g/ha, which were obtained by the experimental procedure mentioned above.

[20] = tested on: POAAN; assay: Post-emergence action against POAAN, 1.28 kg/ha; format: in vivo, Poa annua; details: dosage 1280 g/ha, visual rating about 3 weeks after treatment vs untreated controls
Outline: as §3

[21] = tested on: ECHCG; assay: Pre-emergence action against ECHCG, 1280 g/ha; format: in vivo, Echinochloa crus-galli; details: visual scoring after about 3 weeks vs untreated controls, 100% = plants have died, 0% = like control plants
Outline: as §1

[22] = tested on: AMARE; assay: Post-emergence action against AMARE, 1.28 kg/ha; format: in vivo, Amaranthus retroflexus; details: dosage 1280 g/ha, visual rating about 3 weeks after treatment vs untreated controls (100% = plants died)
Outline: as §3

[23] = tested on: ALOMY; assay: Pre-emergence action at 320 g/ha against ALOMY; format: in vivo, Alopecurus myosuroides; details: scored visually after about 3 weeks vs untreated controls (100% = plants have died)
Outline: as §2

[24] = tested on: VIOTR; assay: Pre-emergence action at 320 g/ha against VIOTR; format: in vivo, Viola tricolor; details: dosage 320 g/ha
Outline: as §2

[25] = tested on: DIGSA; assay: Pre-emergence action at 320 g/ha against DIGSA; format: in vivo, Digitaria sanguinalis; details: visual scoring after about 3 weeks vs untreated controls
Outline: as §2

[26] = tested on: MATIN; assay: Pre-emergence action against MATIN, 1280 g/ha; format: in vivo, Tripleurospermum inodorum (Matricaria inodora); details: scored visually after about 3 weeks vs untreated controls (100% = plants have died)
Outline: as §1

[27] = tested on: ABUTH; assay: Post-emergence action against ABUTH, 1.28 kg/ha; format: in vivo, Abutilon theophrasti; details: dosage 1280 g/ha, visual rating about 3 weeks after treatment vs untreated controls (100% = plants died)
Outline: as §3

[28] = tested on: SETVI; assay: Post-emergence action against SETVI, 1.28 kg/ha; format: in vivo, Setaria viridis; details: dosage 1280 g/ha, visual rating about 3 weeks after treatment vs untreated controls
Outline: as §3

[29] = tested on: STEME; assay: Post-emergence action against STEME, 1.28 kg/ha; format: in vivo, Stellaria media; details: dosage 1280 g/ha, visual rating about 3 weeks after treatment vs untreated controls (100% = plants died)
Outline: as §3

[30] = tested on: DIGSA; assay: Post-emergence action against DIGSA, 1.28 kg/ha; format: in vivo, Digitaria sanguinalis; details: dosage 1280 g/ha, visual rating about 3 weeks after treatment vs untreated controls
Outline: as §3

[31] = tested on: KCHSC; assay: Post-emergence action against KCHSC, 1.28 kg/ha; format: in vivo, Bassia scoparia; details: dosage 1280 g/ha, visual rating about 3 weeks after treatment vs untreated controls (100% = plants died)
Outline: as §3

[32] = tested on: ALOMY; assay: Post-emergence action against ALOMY, 1.28 kg/ha; format: in vivo, Alopecurus myosuroides; details: dosage 1280 g/ha, visual rating about 3 weeks after treatment vs untreated controls
Outline: as §3

[33] = tested on: ECHCG; assay: Post-emergence action against ECHCG, 1.28 kg/ha; format: in vivo, Echinochloa crus-galli; details: dosage 1280 g/ha, visual rating about 3 weeks after treatment vs untreated controls
Outline: as §3

[34] = tested on: LOLRI; assay: Post-emergence action against LOLRI, 1.28 kg/ha; format: in vivo, Lolium rigidum; details: dosage 1280 g/ha, visual rating about 3 weeks after treatment vs untreated controls
Outline: as §3

Q: `C[C@@H](Oc1nn(-c2ccccc2F)c(-c2cncnc2)c1[N+](=O)[O-])C(=O)O` [VI-016] was tested. Which “Pre-emergence action against KCHSC” value [1] did it give?
A: The value was 100%.

Q: And the “Pre-emergence action against LOLRI” value [2]?
A: Its value is 100%.

Q: And the “Pre-emergence action against POLCO in %” value [3]?
A: The value was 90%.

Q: And the “Pre-emergence action against ALOMY” value [4]?
A: The value was 90%.

Q: And the “Pre-emergence action against POAAN” value [5]?
A: Its value is 100%.

Q: What about the “Pre-emergence action against STEME” value [6] of the same compound?
A: The value was 100%.

Q: And the “Pre-emergence action against DIGSA” value [7]?
A: The value was 100%.

Q: And the “Pre-emergence action against MATIN in %” value [8]?
A: The value was 100%.

Q: What about the “Pre-emergence action against AMARE” value [9] of the same compound?
A: Its value is 100%.

Q: What about the “Pre-emergence action against SETVI” value [10] of the same compound?
A: The value was 100%.

Q: And the “Pre-emergence action against LOLRI in %” value [11]?
A: The value was 100%.

Q: What about the “Pre-emergence action against AVEFA in %” value [12] of the same compound?
A: The value was 80%.

Q: And the “Post-emergence action against MATIN” value [13]?
A: Its value is 90%.

Q: And the “Pre-emergence action against SETVI in %” value [14]?
A: Its value is 100%.

Q: And the “Post-emergence action against VERPE” value [15]?
A: The value was 90%.

Q: What about the “Pre-emergence action against AMARE in %” value [16] of the same compound?
A: Its value is 100%.

Q: What about the “Pre-emergence action against VERPE in %” value [17] of the same compound?
A: The value was 100%.

Q: What about the “Pre-emergence action against VERPE” value [18] of the same compound?
A: Its value is 100%.

Q: And the “Post-emergence action against AVEFA in %” value [19]?
A: The value was 90%.

Q: And the “Post-emergence action against POAAN” value [20]?
A: Its value is 100%.

Q: What about the “Pre-emergence action against ECHCG” value [21] of the same compound?
A: The value was 100%.

Q: What about the “Post-emergence action against AMARE” value [22] of the same compound?
A: Its value is 100%.

Q: And the “Pre-emergence action at 320 g/ha against ALOMY in %” value [23]?
A: Its value is 100%.

Q: And the “Pre-emergence action against VIOTR in %” value [24]?
A: Its value is 100%.

Q: What about the “Pre-emergence action against DIGSA in %” value [25] of the same compound?
A: The value was 100%.

Q: What about the “Pre-emergence action against MATIN” value [26] of the same compound?
A: The value was 100%.

Q: Which results are given for `CCOC(=O)COc1nn(-c2ccc(F)cc2F)c(-c2ccc(F)nc2)c1Br` [VII-101]?
A: Post-emergence action against ABUTH [27]: 90%; Pre-emergence action against KCHSC [1]: 100%; Pre-emergence action against LOLRI [2]: 100%; Post-emergence action against SETVI [28]: 100%; Pre-emergence action against ALOMY [4]: 100%; Pre-emergence action against POAAN [5]: 100%; Pre-emergence action against STEME [6]: 100%; Pre-emergence action against DIGSA [7]: 100%; Pre-emergence action against AMARE [9]: 100%; Post-emergence action against STEME [29]: 100%; Pre-emergence action against SETVI [10]: 100%; Post-emergence action against DIGSA [30]: 100%; Post-emergence action against MATIN [13]: 100%; Post-emergence action against KCHSC [31]: 90%; Post-emergence action against VERPE [15]: 100%; Post-emergence action against ALOMY [32]: 100%; Pre-emergence action against VERPE [18]: 100%; Post-emergence action against POAAN [20]: 100%; Pre-emergence action against ECHCG [21]: 90%; Post-emergence action against AMARE [22]: 90%; Post-emergence action against ECHCG [33]: 100%; Post-emergence action against LOLRI [34]: 100%; Pre-emergence action against MATIN [26]: 100%
